The record followed here is patent publication US7153993B2, “Process for making polymorphic form A of 4-[6-acetyl-3-[3-(4-acetyl-3-hydroxy-2-propylphenylthio)propoxy]-2-propylphenoxy]butyric acid” (Medicinova, Inc., priority 2003, dated 2006).

A short description of data set [1]: Oral activity for treatment of asthma and allergic diseases. Format: in vivo.
A short description of data set [2]: Solubility of crystalline polymorphs in ether. It counts as physicochemical. The text has this:
After re-crystallization with individual solvents, compound (1) was subjected to powder X-ray diffractometry, thermal analysis and determination of solubility in ether; thus an exploratory evaluation of the crystalline polymorphism was made.

The nature of data set [3]: Solubility of compound (1) in ethanol/water (2:1). It counts as physicochemical. The conditions noted are these: stirred one hour. On the procedure: Samples of compound (1) (5 g) were suspended in ethanol/water (2:1, 100 mL) and stirred for one hour at temperatures of 22° C., 30° C., and 40° C., respectively. The suspensions were filtered and the solids dried in a vacuum oven at room temperature overnight to give the insoluble material. The solubilities were calculated by subtractive means based on recovered material.

Converted amounts (≈) assume the structure as drawn.

Take `CCCc1c(SCCCOc2ccc(C(C)=O)c(OCCCC(=O)O)c2CCC)ccc(C(C)=O)c1O` [Compound (1), 4-[6-acetyl-3-[3-(4-acetyl-3-hydroxy-2-propylphenylthio)propoxy]-2-propylphenoxy]butyric acid]: the “oral activity for treatment of asthma and allergic diseases” value in data set [1] is recorded as “orally active”.

In data set [2] (ether, listed as I), `CCCc1c(SCCCOc2ccc(C(C)=O)c(OCCCC(=O)O)c2CCC)ccc(C(C)=O)c1O` [Form I, 4-[6-acetyl-3-[3-(4-acetyl-3-hydroxy-2-propylphenylthio)propoxy]-2-propylphenoxy]butyric acid] yielded a Solubility in ether of 36.7 mg/mL (≈ 69.2 mM).

In the case of `CCCc1c(SCCCOc2ccc(C(C)=O)c(OCCCC(=O)O)c2CCC)ccc(C(C)=O)c1O` [Form II, 4-[6-acetyl-3-[3-(4-acetyl-3-hydroxy-2-propylphenylthio)propoxy]-2-propylphenoxy]butyric acid], the solubility in data set [2] (ether, organic solvent or mixture) is 40.5 mg/mL (≈ 76.3 mM).

In data set [2] (ether, listed as III), `CCCc1c(SCCCOc2ccc(C(C)=O)c(OCCCC(=O)O)c2CCC)ccc(C(C)=O)c1O` [Form III, 4-[6-acetyl-3-[3-(4-acetyl-3-hydroxy-2-propylphenylthio)propoxy]-2-propylphenoxy]butyric acid] displayed a Solubility in ether of 35.3 mg/mL (≈ 66.5 mM).

On to `CCCc1c(SCCCOc2ccc(C(C)=O)c(OCCCC(=O)O)c2CCC)ccc(C(C)=O)c1O` [Form IV, 4-[6-acetyl-3-[3-(4-acetyl-3-hydroxy-2-propylphenylthio)propoxy]-2-propylphenoxy]butyric acid], for which, in data set [2] (ether, listed as IV), the Solubility in ether amounted to 45.8 mg/mL (≈ 86.3 mM).

In the case of `CCCc1c(SCCCOc2ccc(C(C)=O)c(OCCCC(=O)O)c2CCC)ccc(C(C)=O)c1O` [Form V, 4-[6-acetyl-3-[3-(4-acetyl-3-hydroxy-2-propylphenylthio)propoxy]-2-propylphenoxy]butyric acid], the “Solubility in ethanol/water (2:1)” value is 15.7 mg/mL (≈ 29.6 mM) in data set [3] (30° C., listed as V (form A)) and 46 mg/mL (≈ 86.7 mM) in data set [3] (40° C., listed as V (form A)). Also, the solubility at 1 h in data set [3] (ethanol/water (2:1), 22 °C, organic solvent or mixture, thermodynamic from solid, 22° C.) is 6.7 mg/mL (≈ 12.6 mM). This compound also had a Solubility in ether in data set [2] (ether, listed as V) of 47.6 mg/mL (≈ 89.7 mM). Besides, the “solubility compared to the other polymorphs” value in data set [2] (qualitative statement, solvent not stated) is “superior to the other polymorphs”.

In the case of `CCCc1c(SCCCOc2ccc(C(C)=O)c(OCCCC(=O)O)c2CCC)ccc(C(C)=O)c1O` [undesired monoclinic polymorph, 4-[6-acetyl-3-[3-(4-acetyl-3-hydroxy-2-propylphenylthio)propoxy]-2-propylphenoxy]butyric acid], the entries for the “Solubility in ethanol/water (2:1)” value in data set [3] (22° C.), in data set [3] (30° C.) and in data set [3] (40° C.) were 3.4 mg/mL (≈ 6.41 mM), 6.1 mg/mL (≈ 11.5 mM) and 17.2 mg/mL (≈ 32.4 mM), respectively.
